Measured values from article PMC11141368, “Antioxidant, antibacterial, enzyme inhibition and fluorescence characteristics of unsymmetrical thiourea derivatives” (Heliyon, 2024).
Where “and” joins values, the source holds several entries; their conditions need not be identical. Equal values may be shown once.

Columns and labels:
[1] = biological target: T1, acetylcholinesterase (AChE) (Electrophorus electricus, UniProt O42275); experiment: biochemical; settings: for inhibition at 62.5 µg/mL / inhibition at 125 µg/mL / inhibition at 250 µg/mL / inhibition at 500 µg/mL / inhibition at 1000 µg/mL: read-out: AChE Percent inhibition
T1 construct: The AChE was derived from the electric eel, while BChE was obtained from equineserum; from tissue; host or cells: electric eel (tissue not specified)
Experimental: (§1) This assay employed two enzymes, namely acetylcholinesterase (AChE) and butyryl cholinesterase (BChE). The AChE was derived from the electric eel, while BChE was obtained from equineserum. The synthesized compounds were dissolved in phosphate buffer (0.1 M, pH 8.0). The enzymes AChE (518 U/mg) and BChE (7–16 U/mg) were diluted in a 0.1 M phosphate buffer to achieve concentrations of 0.03 U/mL and 0.01 U/mL, respectively. Preparations of ATchI (0.5 mM), DTNB (0.2273 mM), and BTchI (0.5 mM) were made in distilled water and stored at a low temperature of 8 °C. […] The solution was heated to 30 °C for 15 min, followed by the gradual addition of the substrate. Absorbance of the heated sample at 412 nm was measured using a double beam spectrophotometer. […] The percentage activity (A) and inhibition of the enzyme were determined by applying the rate of absorption as a function of time (V=ΔAbs/Δt) using the following equation (Equation (2)).(2) %Inhibition=V/Vmax×100 Where V = enzyme inhibition activity of products and Vmax = enzyme activity without test of product.

E. coli = experiment: Antibacterial agar well diffusion; assay type: cell-based, Escherichia coli (ATCC25922); settings: Escherichia coli, 24 h, 6.25 mg/mL per well, 37 °C
Source text: (§2) The antibacterial assay was done for all compounds (1–6) as described in previous studies. The mean number of viable organisms per milliliter of stock suspensions containing Escherichia coli (ATCC25922), Pseudomonas aeruginosa (ATCC27853), Salmonella typhi (ATCC0650), and Staphylococcus aureus (NCTC25953) was uncovered using the surface viable counting method. Preparations of suspensions containing approximately 108–109 colony forming units (CFU) per milliliter were made. Aseptic nutritional agar was formulated and transferred onto petri dishes. Cultures of bacteria were uniformly distributed on agar surface using sterile brush sticks. Five wells, each with a diameter of 6 mm, were made in each plate using a sterile borer. Afterwards, a concentration of 6.25 mg/mL of each component was applied to separate wells. Cephradine, a readily accessible antibiotic, was employed as a reference standard at an equivalent concentration. Following sealing, the agar dishes were incubated at a controlled temperature of 37 °C for a period of 24 h. The zone of inhibition in the plates was determined, which represents the inhibition of bacterial growth. Each sample zone of inhibition diameter was evaluated, and the antibacterial effectiveness of each drug was quantified according to the mean diameter of the inhibition zone (in millimetres).

[2] = biological target: T2, butyryl cholinesterase (BChE) (Equus caballus, UniProt P81908); experiment: Anticholinesterase assay (Elman's test), BChE; assay type: biochemical; settings: for inhibition at 62.5 µg/mL / inhibition at 125 µg/mL / inhibition at 250 µg/mL / inhibition at 500 µg/mL / inhibition at 1000 µg/mL: read-out: BChE Percent inhibition
T2 construct: The AChE was derived from the electric eel, while BChE was obtained from equineserum; from tissue; host or cells: equine serum
Experimental: as §1

[3] = ABTS free radical scavenging assay; assay type: biochemical
Experimental: (§3) In accordance with the procedure described in the literature, the ABTS activity assay was applied to evaluate the free radical scavenging capabilities of the synthesized compounds (1–6). ABTS solution was prepared by mixing 7 mM ABTS and 2.45 mM potassium persulfate and was then placed for 16 h under dark at room temperature. A methanol dilution was performed on the solution to achieve an absorbance of 0.706 ± 0.001 at 734 nm before starting the assay. To quantify the assay, 3 mL of the ABTS solution has been added to different concentrations (ranging from 62.5 to 1000 μg/mL) of every compound (300 μL) that were dissolved in methanol. Then after 1 min of incubation, the absorbance was continuously measured for 5 min. To confirm precision, all experiments were conducted in triplicate. The antioxidant capacities of the compounds were assessed with gallic acid as a reference, and the ability to remove free radicals was calculated as a percentage for each compound employing Equation.1 as presented below. Additionally, the DPPH free radical scavenging method was employed to assess the antioxidant activity of compounds (1–6), in accordance with a widely recognized procedure documented in existing literature. Concentrations ranging from 62.5 to 1000 μg/mL of compounds (1–6), dissolved in methanol, were introduced into a 2 mL solution of DPPH (0.002 % in methanol). The resulting solutions were kept in the dark at room temperature for a duration of 30 min. The amount of light absorbed by the solutions was then determined using a UV/vis spectrophotometer at a wavelength of 517 nm. The investigations were performed three times, using the exact protocol described for the ABTS scavenging assay. Afterwards, the antioxidant capabilities of each molecule were assessed using calculation.(1) Scavengingactivity(%)=A−B/A×100
(§4) Where, A = absorbance of ABTS/DPPH and B = absorbance of solution containing ABTS/DPPH and test samples.

[4] = DPPH free radical scavenging assay; assay type: biochemical
Experimental: as §3, §4

S. typhi = experiment: Antibacterial agar well diffusion; assay type: cell-based, Salmonella typhi (ATCC0650); settings: 24 h, 6.25 mg/mL per well, 37 °C; for zone of inhibition at 6250 µg/mL: Salmonella enterica, TYPHI
Source text: as §2

S. flexenari = experiment: Antibacterial agar well diffusion; assay type: cell-based; settings: 24 h, 6.25 mg/mL per well, 37 °C
P. aeruginosa = experiment: Antibacterial agar well diffusion; assay type: cell-based, Pseudomonas aeruginosa (ATCC27853); settings: Pseudomonas aeruginosa, 24 h, 6.25 mg/mL per well, 37 °C
Source text: as §2

T2 sequence (P81908 whole entry): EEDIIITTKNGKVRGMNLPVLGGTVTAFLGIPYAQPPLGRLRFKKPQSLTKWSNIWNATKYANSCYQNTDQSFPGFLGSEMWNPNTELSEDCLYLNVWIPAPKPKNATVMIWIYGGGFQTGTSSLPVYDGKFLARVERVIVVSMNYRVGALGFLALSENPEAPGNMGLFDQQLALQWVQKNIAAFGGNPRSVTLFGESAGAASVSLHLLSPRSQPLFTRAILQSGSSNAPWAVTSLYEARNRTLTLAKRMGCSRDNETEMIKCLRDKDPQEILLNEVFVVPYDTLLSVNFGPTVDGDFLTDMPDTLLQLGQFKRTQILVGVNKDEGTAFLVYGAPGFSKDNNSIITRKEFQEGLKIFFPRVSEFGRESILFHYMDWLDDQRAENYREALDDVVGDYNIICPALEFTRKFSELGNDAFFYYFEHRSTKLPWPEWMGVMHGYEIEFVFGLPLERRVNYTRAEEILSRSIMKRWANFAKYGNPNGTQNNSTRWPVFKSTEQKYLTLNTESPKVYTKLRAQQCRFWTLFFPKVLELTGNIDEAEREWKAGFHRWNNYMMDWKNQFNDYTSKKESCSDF
T1 sequence (O42275 24-633): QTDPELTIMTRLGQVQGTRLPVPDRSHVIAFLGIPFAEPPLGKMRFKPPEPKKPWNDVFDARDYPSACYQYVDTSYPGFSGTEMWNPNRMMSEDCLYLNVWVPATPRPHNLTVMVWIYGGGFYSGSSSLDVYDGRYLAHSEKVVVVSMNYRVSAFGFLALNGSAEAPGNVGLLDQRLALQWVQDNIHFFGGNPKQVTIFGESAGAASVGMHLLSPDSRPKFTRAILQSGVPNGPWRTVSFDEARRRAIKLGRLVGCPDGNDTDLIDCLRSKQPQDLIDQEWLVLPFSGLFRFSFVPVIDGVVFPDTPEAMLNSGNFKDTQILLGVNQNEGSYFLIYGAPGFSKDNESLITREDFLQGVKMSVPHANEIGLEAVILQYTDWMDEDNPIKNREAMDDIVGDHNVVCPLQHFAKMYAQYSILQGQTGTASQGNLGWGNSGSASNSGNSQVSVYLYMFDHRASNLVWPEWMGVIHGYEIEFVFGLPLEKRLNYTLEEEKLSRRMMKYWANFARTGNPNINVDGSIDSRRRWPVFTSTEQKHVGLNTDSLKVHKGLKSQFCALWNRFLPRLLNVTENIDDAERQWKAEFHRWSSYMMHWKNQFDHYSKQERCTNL

| Compound | IC50 [1] | inhibition at 62.5 µg/mL [1] | inhibition at 125 µg/mL [1] | inhibition at 250 µg/mL [1] | inhibition at 62.5 µg/mL [2] | inhibition at 125 µg/mL [2] | inhibition at 500 µg/mL [2] | inhibition at 1000 µg/mL [2] | ABTS IC50 [3] | ABTS %inhibition ([3]; 62.5 μg/mL) | ABTS %inhibition ([3]; 250 μg/mL) | ABTS %inhibition ([3]; 500 μg/mL) | ABTS %inhibition ([3]; 1000 μg/mL) | DPPH IC50 [4] | DPPH %inhibition ([4]; 62.5 μg/mL) | DPPH %inhibition ([4]; 125 μg/mL) | DPPH %inhibition ([4]; 250 μg/mL) | DPPH %inhibition ([4]; 500 μg/mL) | DPPH %inhibition ([4]; 1000 μg/mL) | zone of inhibition at 6250 µg/mL (S. typhi) | other results |
| --- | --- | --- | --- | --- | --- | --- | --- | --- | --- | --- | --- | --- | --- | --- | --- | --- | --- | --- | --- | --- | --- |
| Cc1cccnc1NC(=S)NC1CCCCC1 [Compound 2, 1-cyclohexyl-3-(3-methylpyridin-2-yl)thiourea] | 1480 µM | 29.7 ± 0.61% | 35.7 ± 0.77% | 43.8 ± 0.56% | 31.5 ± 0.71% | 37.5 ± 0.77% | 56.45 ± 0.49% | 64.79 ± 0.62% | 82.02 µg/mL | 45.52 ± 2.80% | 60.39 ± 1.71% | 70.37 ± 2.37% | 79.87 ± 2.65% | 72.00 µg/mL | 46.51 ± 2.74% | 54.86 ± 2.86% | 64.15 ± 2.10% | 73.41 ± 2.87% | 81.22 ± 2.89% | 11.5 mm | inhibition at 500 µg/mL [1]: 54.6 ± 0.8%; inhibition at 1000 µg/mL [1]: 62.6 ± 0.77%; zone of inhibition at 6250 µg/mL (E. coli): 9.5 mm; IC50 [2]: 1260 µM; inhibition at 250 µg/mL [2]: 45.8 ± 0.58%; ABTS %inhibition ([3]; 125 μg/mL): 51.10 ± 1.39%; zone of inhibition at 6250 µg/mL (S. flexenari): 11 mm; zone of inhibition at 6250 µg/mL (P. aeruginosa): 13.5 mm |
| S=C(Nc1ccccc1)Nc1cccc(Cl)c1 [Compound 6, 1-(3-chlorophenyl)-3-phenylthiourea] | 329 µM | 47.61 ± 0.43% | 52.7 ± 1.01% | 57.8 ± 1.5% | 51.61 ± 0.43% | 55.1 ± 0.6% | 66.8 ± 7.85% | 71.6 ± 1.63% | 86.03 µg/mL | 44.27 ± 1.53% | 63.09 ± 1.34% | 75.19 ± 2.59% | 81.28 ± 2.17% | 90.30 µg/mL | 43.49 ± 2.72% | 53.66 ± 1.17% | 61.47 ± 2.74% | 76.24 ± 2.61% | 82.19 ± 2.32% | 9.5 mm | inhibition at 500 µg/mL [1]: 62.84 ± 0.3%; inhibition at 1000 µg/mL [1]: 67.51 ± 0.54%; zone of inhibition at 6250 µg/mL (E. coli): 8.5 mm; IC50 [2]: 216 µM; inhibition at 250 µg/mL [2]: 61.2 ± 1.4%; ABTS %inhibition ([3]; 125 μg/mL): 53.26 ± 2.76%; zone of inhibition at 6250 µg/mL (S. flexenari): 10.5 mm; zone of inhibition at 6250 µg/mL (P. aeruginosa): 15.5 mm |
| CC1=C(C(=O)O)N2C(=O)[C@@H](NC(=O)[C@H](N)C3=CCC=CC3)[C@H]2SC1 [Std.Drug, Cephradine, reference compound] | – | – | – | – | – | – | – | – | – | – | – | – | – | – | – | – | – | – | – | 15 mm | Zone of inhibition (S. typhi): 25 mm and 20 mm and 14 mm and 13 mm |
| O=C(O)c1cc(O)c(O)c(O)c1 [Gallic acid, gallic acid, reference compound] | – | – | – | – | – | – | – | – | 39.54 µg/mL | 51.68 ± 0.22% | 66.43 ± 0.29% | 71.88 ± 0.20% | 75.89 ± 0.20% | 27.06 µg/mL | 57.54 ± 0.46% | 63.83 ± 1.07% | 69.47 ± 0.46% | 75.45 ± 0.45% | 81.45 ± 0.65% | – | ABTS %inhibition ([3]; 125 μg/mL): 59.84 ± 0.32% |
| Cc1ccc(NC(=S)NC2CCCCC2)c(C)c1 [Compound 3, 1-cyclohexyl-3-(2,4-dimethylphenyl) thiourea] | 548 µM | 43.7 ± 0.66% | 49.7 ± 0.35% | 53.1 ± 0.62% | 44.29 ± 0.43% | 50.23 ± 0.44% | 61.87 ± 0.39% | 67.44 ± 0.09% | 115.07 µg/mL | 46.06 ± 1.86% | 62.14 ± 1.30% | 71.16 ± 2.10% | 80.11 ± 1.01% | 118.05 µg/mL | 46.72 ± 2.13% | 51.88 ± 1.29% | 62.53 ± 1.11% | 71.19 ± 1.27% | 80.38 ± 1.10% | 8.5 mm | inhibition at 500 µg/mL [1]: 59.01 ± 0.42%; inhibition at 1000 µg/mL [1]: 65.5 ± 2.26%; zone of inhibition at 6250 µg/mL (E. coli): 11 mm; IC50 [2]: 468 µM; inhibition at 250 µg/mL [2]: 55.8 ± 1.07%; zone of inhibition at 6250 µg/mL (S. flexenari): 10 mm; zone of inhibition at 6250 µg/mL (P. aeruginosa): 13.5 mm |
| COc1ccc2c3c1O[C@H]1C[C@@H](O)C=C[C@@]31CCN(C)C2 [Galantamine, reference compound] | – | – | – | – | 64.9 ± 0.87% | 67.9 ± 0.98% | 81.83 ± 0.37% | 89.64 ± 0.62% | – | – | – | – | – | – | – | – | – | – | – | – | – |
| Cc1cccnc1NC(=S)Nc1ccccc1 [Compound 5, 1-(3-methylpyridin-2-yl)-3-phenylthiourea] | 1410 µM | 38.7 ± 0.68% | 44.7 ± 1.25% | 48 ± 0.75% | 31.9 ± 0.48% | 39 ± 0.48% | 61.6 ± 1.34% | 69.6 ± 1.12% | 44.60 µg/mL | 67.80 ± 1.50% | 77.42 ± 0.43% | 85.23 ± 1.83% | 92.76 ± 0.71% | 37.50 µg/mL | 62.44 ± 0.58% | 67.56 ± 1.73% | 74.31 ± 2.15% | 81.65 ± 1.34% | 88.58 ± 1.12% | 11.5 mm | inhibition at 500 µg/mL [1]: 56.3 ± 1.06%; inhibition at 1000 µg/mL [1]: 63.3 ± 0.98%; zone of inhibition at 6250 µg/mL (E. coli): 10.5 mm; inhibition at 250 µg/mL [2]: 47.9 ± 0.96%; ABTS %inhibition ([3]; 125 μg/mL): 72.56 ± 1.06%; zone of inhibition at 6250 µg/mL (S. flexenari): 10.5 mm; zone of inhibition at 6250 µg/mL (P. aeruginosa): 9.5 mm |
